Measured values from ChEMBL document CHEMBL1142513, “Efficient solid-phase synthesis of FK228 analogues as potent antitumoral agents” (J Med Chem, 2008).

Key:
[1] = tested on: T-24; experiment: Antitumor activity against human T24 cells after 3 days by MTT assay; format: functional, cell-based; details: T-24, 72 h
[2] = tested on: T-24; experiment: Growth inhibition of human T24 cells at 5 uM after 3 days by MTT assay; format: functional; details: T-24, 72 h, read-out: GI
[3] = tested on: T-24; experiment: Growth inhibition of human T24 cells at 0.5 uM after 3 days by MTT assay; format: functional; details: T-24, 72 h, read-out: GI
[4] = Antitumor activity against human 253J cells after 3 days by MTT assay; format: functional, cell-based; details: 72 h
[5] = tested on: TCC-SUP; experiment: Antitumor activity against human TCC-SUP cells after 3 days by MTT assay; format: functional, cell-based; details: 72 h
[6] = tested on: PC-3; experiment: Antitumor activity against human PC-3 cells after 3 days by MTT assay; format: functional, cell-based; details: PC-3, 72 h
[7] = tested on: DU-145; experiment: Antitumor activity against human DU145 cells after 3 days by MTT assay; format: functional, cell-based; details: DU-145, 72 h
[8] = tested on: LNCaP; experiment: Antitumor activity against human LNCAP cells after 3 days by MTT assay; format: functional, cell-based; details: 72 h

IC50 [6] [nM]	IC50 [7] [nM]	IC50 [8] [nM]	SMILES	IC50 [1] [nM]	inhibition of growth at 5 µM [2] [%]	inhibition of growth at 0.5 µM [3] [%]	IC50 [4] [nM]	IC50 [5] [nM]
			CC(C)[C@H]1NC(=O)C[C@@H]2NC(=O)[C@H](Cc3cccc4ccccc34)NC(=O)[C@H](Cc3cccc4ccccc34)NC(=O)[C@H](CSSCCNC2=O)NC1=O	60	> 95	70		
600	180	270	CC(C)[C@H]1NC(=O)C[C@@H]2NC(=O)[C@H](Cc3ccccc3)NC(=O)[C@H](Cc3ccccc3)NC(=O)[C@H](CSSCCNC2=O)NC1=O	260	> 95	70	180	380
